Like-named read-outs stand apart in the source and are kept apart here.
Assay: Single dose PK in healthy subjects (Cohorts 1, 2, S1 and S2), plasma
Format: in vivo, human
Settings: human, plasma
Protocol: This study investigates (i) the safety and tolerability of Compound A (methyl (2R,3S)-3-((methylsulfonyl)amino)-2-(((cis-4-phenylcyclohexyl)oxy)methyl)piperidine-1-carboxylate) when a single dose given as a 9 hour continuous IV infusion is administered to healthy adults, healthy elderly subjects and patients with narcolepsy type 1 (NT1); (ii) the pharmacokinetics of Compound A when a single dose given as a 9 hour continuous IV infusion is administered to healthy adults, healthy elderly subjects and patients with narcolepsy type 1; and (iii) the pharmacodynamics (PD) effects of Compound A, primarily by evaluation of the sleep latency on MWT when a single dose given as a 9 hour continuous IV infusion is administered to patients with narcolepsy type 1.
Pharmacokinetics: Concentrations of Compound A in plasma, and CSF, and pharmacokinetics parameters.
On average, the time to reach the plateau appeared to be approximately 3 to 4 hours after the start of infusion. […] After switching off the IV infusion, Compound A plasma concentrations declined rapidly and in a biphasic manner with a mean terminal disposition phase t1/2z ranging approximately from 3.4 to 5.1 hours across all doses. […] Table 5 provides a summary of plasma concentrations of Compound A after a single IV infusion in healthy subjects. Table 6 provides a summary of pharmacokinetic parameters of Compound A after a single IV infusion in healthy subjects.

[1] = intravenous, 180 mg, read-out: Plasma concentration, Maximum
[2] = intravenous, 180 mg, read-out: Plasma concentration, Mean
[3] = intravenous, 180 mg, read-out: Plasma concentration, Median
[4] = intravenous, 180 mg, read-out: Plasma concentration, Minimum
[5] = intravenous, 180 mg, read-out: Plasma concentration, Q1
[6] = intravenous, 180 mg, read-out: Plasma concentration, Q3
[7] = intravenous, 240 mg, read-out: Plasma concentration, Mean
[8] = intravenous, 240 mg, read-out: Plasma concentration, Minimum
[9] = intravenous, 240 mg, read-out: Plasma concentration, Q1

COC(=O)N1CCC[C@H](NS(C)(=O)=O)[C@@H]1CO[C@H]1CC[C@@H](c2ccccc2)CC1 [Compound A, methyl (2R,3S)-3-((methylsulfonyl)amino)-2-(((cis-4-phenylcyclohexyl)oxy)methyl)piperidine-1-carboxylate] gave a concentration at 1 h [1] of 265 ng/mL, a concentration at 1 h [2] of 216 ng/mL and a concentration at 1 hr [3] of 215 ng/mL. For the same compound, the concentration at 1 hr [4] was 173 ng/mL, the concentration at 1 hr [5] was 201 ng/mL and the concentration at 1 h [6] was 229 ng/mL. For the same compound, the concentration at 1.5 h [1] was 304 ng/mL, the concentration at 1.5 h [2] was 255 ng/mL and the concentration at 1.5 hr [3] was 242 ng/mL. For the same compound, the concentration at 1.5 hr [4] was 224 ng/mL, the concentration at 1.5 hr [5] was 228 ng/mL and the concentration at 1.5 h [6] was 290 ng/mL. It also gave a concentration at 2 h [1] of 341 ng/mL, a concentration at 2 h [2] of 294 ng/mL and a concentration at 2 hr [3] of 292 ng/mL. For the same compound, the concentration at 2 hr [4] was 251 ng/mL, the concentration at 2 hr [5] was 271 ng/mL and the concentration at 2 h [6] was 320 ng/mL. The concentration at 3 h [1] was 355 ng/mL, the concentration at 3 h [2] was 315 ng/mL and the concentration at 3 hr [3] was 314 ng/mL. It also gave a concentration at 3 hr [4] of 276 ng/mL, a concentration at 3 hr [5] of 307 ng/mL and a concentration at 3 h [6] of 324 ng/mL. The concentration at 4 h [1] was 361 ng/mL, the concentration at 4 hr [2] was 328 ng/mL and the concentration at 4 hr [3] was 325 ng/mL. The concentration at 4 hr [4] was 293 ng/mL, the concentration at 4 hr [5] was 304 ng/mL and the concentration at 4 h [6] was 358 ng/mL. For the same compound, the concentration at 6 h [1] was 322 ng/mL, the concentration at 6 hr [2] was 292 ng/mL and the concentration at 6 hr [3] was 292 ng/mL. The concentration at 6 hr [4] was 252 ng/mL, the concentration at 6 hr [5] was 285 ng/mL and the concentration at 6 h [6] was 311 ng/mL. For the same compound, the concentration at 8 h [1] was 337 ng/mL, the concentration at 8 h [2] was 300 ng/mL and the concentration at 8 hr [3] was 292 ng/mL. For the same compound, the concentration at 8 hr [4] was 275 ng/mL, the concentration at 8 hr [5] was 277 ng/mL and the concentration at 8 hr [6] was 330 ng/mL. It also gave a concentration at 9 h (intravenous, 180 mg, 9 hr, read-out: Plasma concentration, Maximum) of 364 ng/mL, a concentration at 9 h (intravenous, 180 mg, 9 hr, read-out: Plasma concentration, Mean) of 325 ng/mL and a concentration at 9 hr (intravenous, 180 mg, 9 hr, read-out: Plasma concentration, Median) of 316 ng/mL. It also gave a concentration at 9 hr (intravenous, 180 mg, 9 hr, read-out: Plasma concentration, Minimum) of 285 ng/mL, a concentration at 9 hr (intravenous, 180 mg, 9 hr, read-out: Plasma concentration, Q1) of 311 ng/mL and a concentration at 9 hr (intravenous, 180 mg, 9 hr, read-out: Plasma concentration, Q3) of 358 ng/mL. For the same compound, the concentration at 0.5 h (intravenous, 240 mg, 0.5 hr, read-out: Plasma concentration, Mean) was 292 ng/mL, the concentration at 0.5 hr (intravenous, 240 mg, 0.5 hr, read-out: Plasma concentration, Minimum) was 228 ng/mL and the concentration at 0.5 hr (intravenous, 240 mg, 0.5 hr, read-out: Plasma concentration, Q1) was 230 ng/mL. For the same compound, the concentration at 1 h [7] was 345 ng/mL, the concentration at 1 hr [8] was 265 ng/mL and the concentration at 1 hr [9] was 286 ng/mL. For the same compound, the concentration at 1.5 h [7] was 388 ng/mL, the concentration at 1.5 hr [8] was 315 ng/mL and the concentration at 1.5 hr [9] was 333 ng/mL. It also gave a concentration at 2 h [7] of 403 ng/mL, a concentration at 2 hr [8] of 337 ng/mL and a concentration at 2 hr [9] of 349 ng/mL. For the same compound, the concentration at 3 h [7] was 456 ng/mL, the concentration at 3 hr [8] was 393 ng/mL and the concentration at 3 hr [9] was 400 ng/mL. It also gave a concentration at 4 h [7] of 493 ng/mL, a concentration at 4 hr [8] of 388 ng/mL and a concentration at 4 hr [9] of 423 ng/mL. For the same compound, the concentration at 6 h [7] was 428 ng/mL, the concentration at 6 hr [8] was 335 ng/mL and the concentration at 6 hr [9] was 366 ng/mL. The concentration at 8 h [7] was 474 ng/mL, the concentration at 8 h [8] was 393 ng/mL and the concentration at 8 hr [9] was 409 ng/mL. It also gave a concentration at 9 h (intravenous, 240 mg, 9 hr, read-out: Plasma concentration, Mean) of 497 ng/mL, a concentration at 9 hr (intravenous, 240 mg, 9 hr, read-out: Plasma concentration, Minimum) of 417 ng/mL and a concentration at 9 hr (intravenous, 240 mg, 9 hr, read-out: Plasma concentration, Q1) of 452 ng/mL. It also gave an AUC (iv, 7 mg, 7 mg single IV infusion, healthy subjects, read-out: AUC24 Geo Mean) of 140 ng·h/mL, an AUC (iv, 7 mg, 7 mg single IV infusion, healthy subjects, read-out: AUC24 Mean) of 142 ng·h/mL and an AUC (iv, 7 mg, 7 mg single IV infusion, healthy subjects, read-out: AUC24 Median) of 142 ng·h/mL. The AUC(0-inf) (iv, 7 mg, 7 mg single IV infusion, healthy subjects, read-out: AUCinf Geo Mean) was 142 ng·h/mL, the AUC(0-inf) (iv, 7 mg, 7 mg single IV infusion, healthy subjects, read-out: AUCinf Mean) was 143 ng·h/mL and the AUC(0-inf) (iv, 7 mg, 7 mg single IV infusion, healthy subjects, read-out: AUCinf Median) was 146 ng·h/mL. The AUC(0-t) (iv, 7 mg, 7 mg single IV infusion, healthy subjects, read-out: AUClast Geo Mean) was 138 ng·h/mL, the AUC(0-t) (iv, 7 mg, 7 mg single IV infusion, healthy subjects, read-out: AUClast Mean) was 140 ng·h/mL and the AUC(0-t) (iv, 7 mg, 7 mg single IV infusion, healthy subjects, read-out: AUClast Median) was 142 ng·h/mL. It also gave a clearance (iv, 7 mg, 7 mg single IV infusion, healthy subjects, read-out: CL Mean (converted)) of 833 mL/min, a concentration at 9 h (iv, 7 mg, 7 mg single IV infusion, healthy subjects, read-out: Ceoi Geo Mean) of 13.4 ng/mL and a concentration at 9 h (iv, 7 mg, 7 mg single IV infusion, healthy subjects, read-out: Ceoi Mean) of 13.5 ng/mL. It also gave a concentration at 9 h (iv, 7 mg, 7 mg single IV infusion, healthy subjects, read-out: Ceoi Median) of 13.9 ng/mL, a Cmax (iv, 7 mg, 7 mg single IV infusion, healthy subjects, read-out: Cmax Geo Mean) of 16.7 ng/mL and a Cmax (iv, 7 mg, 7 mg single IV infusion, healthy subjects, read-out: Cmax Mean) of 16.9 ng/mL. The Cmax (iv, 7 mg, 7 mg single IV infusion, healthy subjects, read-out: Cmax Median) was 16.5 ng/mL, the Vd (iv, 7 mg, 7 mg single IV infusion, healthy subjects, read-out: Vss Mean) was 82.9 L and the Vd (iv, 7 mg, 7 mg single IV infusion, healthy subjects, read-out: Vz Mean) was 292 L. It also gave a Vd (iv, 7 mg, 7 mg single IV infusion, healthy subjects, read-out: Vz Median) of 303 L, a Tmax (iv, 7 mg, 7 mg single IV infusion, healthy subjects, read-out: tmax Mean) of 3 h and a Tmax (iv, 7 mg, 7 mg single IV infusion, healthy subjects, read-out: tmax Median) of 3 h. The AUC (iv, 14 mg, 14 mg single IV infusion, healthy subjects, read-out: AUC24 Geo Mean) was 323 ng·h/mL, the AUC (iv, 14 mg, 14 mg single IV infusion, healthy subjects, read-out: AUC24 Mean) was 326 ng·h/mL and the AUC (iv, 14 mg, 14 mg single IV infusion, healthy subjects, read-out: AUC24 Median) was 322 ng·h/mL. The AUC(0-inf) (iv, 14 mg, 14 mg single IV infusion, healthy subjects, read-out: AUCinf Geo Mean) was 328 ng·h/mL and the AUC(0-inf) (iv, 14 mg, 14 mg single IV infusion, healthy subjects, read-out: AUCinf Mean) was 331 ng·h/mL.

Source: patent US20220339143A1, “TAK-925 FOR USE IN TREATING NARCOLEPSY” (Takeda Pharmaceutical Company Limited, priority 2019, published 2022)
